The source made the active and inactive calls. The rule behind the calls is not given here.
System: rodent carcinogenicity bioassays, tumor incidence
Test: CCRIS carcinogenicity studies
Details: Dose: 0, Dose: 0
Summary of the method: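 Archive of carcinogenicity, mutagenicity, tumor promotion and tumor inhibition results drawn from journals, NCI reports and other sources, expert-reviewed; covers 1985-2011 and is no longer updated.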

In the case of `CCCCCN(C)N=O`, the carcinogen call (Species: HAMSTER, Strain/Sex: SYRIAN/FEMALE, Route: GAVAGE, 5.6 MG/KG 1/WK FOR 23-30 WK (TOTAL DOSE: 0; 1.1 MMOL) (STUDY DURATION: LIFETIME), 5.6 MG/KG 1/WK FOR 23-30 WK (TOTAL DOSE: 0; 1.1 MMOL) (STUDY DURATION: LIFETIME), Tumor Site: Type of Lesion: LUNG: ALVEOLAR/BRONCHIAL ADENOMA, NASAL MUCOSA: CARCINOMA, ADENOMA, FORESTOMACH: SQUAMOUS CELL CARCINOMA, SQUAMOUS CELL, Tumor Site: Type of Lesion: LUNG: ALVEOLAR/BRONCHIAL ADENOMA, NASAL MUCOSA: CARCINOMA, ADENOMA, FORESTOMACH: SQUAMOUS CELL CARCINOMA, SQUAMOUS CELL) was “active; positive”, the carcinogen call (Species: HAMSTER, Strain/Sex: SYRIAN/MALE,FEMALE, Route: INTRAPERITONEAL, 3, 6 MG/KG ONCE ON DAYS 1 AND 3 OF AGE, RESPECTIVELY (STUDY DURATION: >75 WK), 3, 6 MG/KG ONCE ON DAYS 1 AND 3 OF AGE, RESPECTIVELY (STUDY DURATION: >75 WK)) was “inactive; negative” and the carcinogen call (Species: HAMSTER, Strain/Sex: SYRIAN/MALE,FEMALE, Route: INTRAPERITONEAL, 3 MG/KG ONCE TO NEWBORN ANIMALS (STUDY DURATION: LIFETIME)) was “inactive; negative”. The carcinogen call (Species: HAMSTER, Strain/Sex: SYRIAN/MALE,FEMALE, Route: INTRAPERITONEAL, 6 MG/KG ONCE TO 3 D-OLD ANIMALS (STUDY DURATION: LIFETIME)) was “inactive; negative”, the carcinogen call (Species: HAMSTER, Strain/Sex: SYRIAN/MALE,FEMALE, Route: INTRAPERITONEAL, 70-100 MG/KG ONCE TO ADULT ANIMALS (STUDY DURATION: LIFETIME), Tumor Site: Type of Lesion: ESOPHAGUS: PAPILLOMA OR CARCINOMA) was “active; positive” and the carcinogen call (Species: HAMSTER, Strain/Sex: SYRIAN/MALE,FEMALE, Route: INTRAPERITONEAL, 70 MG/KG (3 MALE HAMSTERS), 100 MG/KG (11 FEMALE HAMSTERS) ONCE AT 46-49 DAYS OF AGE (STUDY DURATION: >43 WK), 70 MG/KG (3 MALE HAMSTERS), 100 MG/KG (11 FEMALE HAMSTERS) ONCE AT 46-49 DAYS OF AGE (STUDY DURATION: >43 WK)) was “inactive; negative”. For the same compound, the carcinogen call (Species: HAMSTER, Strain/Sex: SYRIAN/MALE,FEMALE, Route: INTRAPERITONEAL, 75 MG/KG 1/WK FOR 6 WK BEGINNING AT 38 DAYS OF AGE (STUDY DURATION: >33 WK), Tumor Site: Type of Lesion: FORESTOMACH: PAPILLOMA, LUNG: ADENOMA, NASAL CAVITY: TUMOR, Tumor Site: Type of Lesion: FORESTOMACH: PAPILLOMA, LUNG: ADENOMA, NASAL CAVITY: TUMOR) was “active; positive”, the carcinogen call (Species: HAMSTER, Strain/Sex: SYRIAN/MALE,FEMALE, Route: INTRAPERITONEAL, 75 MG/KG 1/WK FOR 6 WK TO ADULT ANIMALS (STUDY DURATION: LIFETIME), Tumor Site: Type of Lesion: ESOPHAGUS: PAPILLOMA, FORESTOMACH: PAPILLOMA, LUNG: ADENOMA, NASAL CAVITY: ADENOMA, ADENOCARCINOMA OR SQUAMOUS CARCINOMA, Tumor Site: Type of Lesion: ESOPHAGUS: PAPILLOMA, FORESTOMACH: PAPILLOMA, LUNG: ADENOMA, NASAL CAVITY: ADENOMA, ADENOCARCINOMA OR SQUAMOUS CARCINOMA) was “active; positive” and the carcinogen call (Species: HAMSTER, Strain/Sex: SYRIAN/MALE, Route: GAVAGE, 5.6 MG/KG 1/WK FOR 23-30 WK (TOTAL DOSE: 0; 1.1 MMOL) (STUDY DURATION: LIFETIME), 5.6 MG/KG 1/WK FOR 23-30 WK (TOTAL DOSE: 0; 1.1 MMOL) (STUDY DURATION: LIFETIME), Tumor Site: Type of Lesion: LIVER: HEPATOCELLULAR ADENOMA, HEMANGIOSARCOMA, LUNG: ALVEOLAR/BRONCHIAL ADENOMA, NASAL MUCOSA: CARCINOMA, FORESTOMACH:, Tumor Site: Type of Lesion: LIVER: HEPATOCELLULAR ADENOMA, HEMANGIOSARCOMA, LUNG: ALVEOLAR/BRONCHIAL ADENOMA, NASAL MUCOSA: CARCINOMA, FORESTOMACH:) was “active; positive”. The carcinogen call (Species: MOUSE, Strain/Sex: 101/N/MALE, FEMALE, Route: ORAL, 0.0015% IN DRINKING WATER FOR 8 WK (STUDY DURATION: 24 WK), Tumor Site: Type of Lesion: ESOPHAGUS: TUMOR) was “active; positive”, the carcinogen call (Species: MOUSE, Strain/Sex: BXH-8/MALE, FEMALE, Route: ORAL, 0.0015% IN DRINKING WATER FOR 8 WK (STUDY DURATION: 24 WK), Tumor Site: Type of Lesion: ESOPHAGUS: TUMOR) was “active; positive” and the carcinogen call (Species: MOUSE, Strain/Sex: C57BL/MALE,FEMALE, Route: ORAL, 0.0015% IN DRINKING WATER FOR 8 WK (STUDY DURATION: 24 WK), Tumor Site: Type of Lesion: ESOPHAGUS:TUMOR) was “active; positive”. For the same compound, the carcinogen call (Species: MOUSE, Strain/Sex: STX/LE/MALE,FEMALE, Route: ORAL, 0.0015% IN DRINKING WATER FOR 8 WK (STUDY DURATION: 24 WK), Tumor Site: Type of Lesion: ESOPHAGUS: TUMOR) was “active; positive”, the carcinogen call (Species: MOUSE, Strain/Sex: SWISS/MALE,FEMALE, Route: INTRAPERITONEAL, 15 MG/KG 1/WK FOR 3 WK BEGINNING AT 38 DAYS OF AGE (STUDY DURATION: >79 WK), Tumor Site: Type of Lesion: ESOPHAGUS: PAPILLOMA, LUNG: ADENOMA) was “active; positive” and the carcinogen call (Species: MOUSE, Strain/Sex: SWISS/MALE,FEMALE, Route: INTRAPERITONEAL, 15 MG/KG 1/WK FOR 3 WK TO ADULT ANIMALS (STUDY DURATION: LIFETIME), Tumor Site: Type of Lesion: ESOPHAGUS: PAPILLOMA, LUNG: ADENOMA) was “active; positive”. For the same compound, the carcinogen call (Species: RAT, Strain/Sex: WISTAR/MALE,FEMALE, Route: INTRAPERITONEAL, 6, 12.5 MG/KG ONCE AT 1 AND 3 DAYS OF AGE, RESPECTIVELY (STUDY DURATION: >82 WK), 6, 12.5 MG/KG ONCE AT 1 AND 3 DAYS OF AGE, RESPECTIVELY (STUDY DURATION: >82 WK)) was “inactive; negative”, the carcinogen call (Species: RAT, Strain/Sex: WISTAR/MALE,FEMALE, Route: INTRAPERITONEAL, 6 MG/KG ONCE TO NEWBORN ANIMALS (STUDY DURATION: LIFETIME)) was “inactive; negative” and the carcinogen call (Species: RAT, Strain/Sex: WISTAR/MALE,FEMALE, Route: INTRAPERITONEAL, 12.5 MG/KG ONCE TO 3 D-OLD ANIMALS (STUDY DURATION: LIFETIME)) was “inactive; negative”. For the same compound, the carcinogen call (Species: RAT, Strain/Sex: WISTAR/MALE,FEMALE, Route: INTRAPERITONEAL, 50-70 MG/KG ONCE TO ADULT ANIMALS (STUDY DURATION: LIFETIME), Tumor Site: Type of Lesion: ESOPHAGUS: PAPILLOMA, CARCINOMA) was “active; positive” and the carcinogen call (Species: RAT, Strain/Sex: WISTAR/MALE,FEMALE, Route: INTRAPERITONEAL, 50 MG/KG (7 FEMALE RATS), 60 MG/KG (2 FEMALE RATS), 70 MG/KG (10 MALE RATS) ONCE AT 42-50 DAYS OF AGE (STUDY DURATION, 50 MG/KG (7 FEMALE RATS), 60 MG/KG (2 FEMALE RATS), 70 MG/KG (10 MALE RATS) ONCE AT 42-50 DAYS OF AGE (STUDY DURATION, Tumor Site: Type of Lesion: ESOPHAGUS: CARCINOMA) was “active; positive”.

With `O.O.O.O.O.O.O.O=S(=O)(O)O.[Co+2]` the carcinogen call (Species: MOUSE, Strain/Sex: B6C3F1/FEMALE, Route: INHALATION, 0.3, 1, 3 MG/M3 6HR/D 5 D/WK FOR 105 WK (STUDY DURATION: 105 WK), 0.3, 1, 3 MG/M3 6HR/D 5 D/WK FOR 105 WK (STUDY DURATION: 105 WK), Tumor Site: Type of Lesion: LUNG: ALVEOLAR/BRONCHIOLAR ADENOMA, ALVEOLAR/BRONCHIOLAR CARCINOMA) was “active; positive”, the carcinogen call (Species: MOUSE, Strain/Sex: B6C3F1/MALE, Route: INHALATION, 0.3, 1, 3 MG/M3 6HR/D 5 D/WK FOR 105 WK (STUDY DURATION: 105 WK), 0.3, 1, 3 MG/M3 6HR/D 5 D/WK FOR 105 WK (STUDY DURATION: 105 WK), Tumor Site: Type of Lesion: LUNG: ALVEOLAR/BRONCHIOLAR ADENOMA, ALVEOLAR/BRONCHIOLAR CARCINOMA) was “active; positive” and the carcinogen call (Species: RAT, Strain/Sex: F344/FEMALE, Route: INHALATION, 0.3, 1, 3 MG/M3 6HR/D 5 D/WK FOR 105 WK (STUDY DURATION: 105 WK), 0.3, 1, 3 MG/M3 6HR/D 5 D/WK FOR 105 WK (STUDY DURATION: 105 WK), Tumor Site: Type of Lesion: LUNG: ALVEOLAR/BRONCHIOLAR ADENOMA, ALVEOLAR/BRONCHIOLAR CARCINOMA, ADRENAL MEDULLA: BENIGN, COMPLEX, OR MALIGNANT PHEOC) was “active; positive”. For the same compound, the carcinogen call (Species: RAT, Strain/Sex: F344/N/MALE, Route: INHALATION, 0.3, 1, 3 MG/M3 6HR/D 5 D/WK FOR 105 WK (STUDY DURATION: 105 WK), 0.3, 1, 3 MG/M3 6HR/D 5 D/WK FOR 105 WK (STUDY DURATION: 105 WK), Tumor Site: Type of Lesion: LUNG: ALVEOLAR/BRONCHIOLAR ADENOMA) was “active; positive”.

— PubChem BioAssay AID1259411 (Chemical Carcinogenesis Research Information System (CCRIS), 2018)
